This passage reports TGI results from PubChem BioAssay (NCI).

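Grown in 96-well plates, cells were treated for 48 hours with each compound at five concentrations. Insufficient inhibition: endpoint recorded as highest concentration tested. TGI marks complete inhibition of growth.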

Among the test systems are SR leukemia; SW-620 colon; OVCAR-5 ovarian; OVCAR-4 ovarian; KM12 colon; CCRF-CEM leukemia; UO-31 renal; NCI-H522 lung; HT29 colon; PC-3 prostate; IGROV1 ovarian.
Common to all, as to assay: growth of human tumour cells (NCI), 48 h

`c1ccc(Nc2nn3c(CCCCCCCCc4nnc5sc(Nc6ccccc6)nn45)nnc3s2)cc1`: the TGI was 38.3 µM with SR leukemia; greater than 100 µM in the test on SW-620 colon; greater than 100 µM in the test on OVCAR-5 ovarian; greater than 100 µM with OVCAR-4 ovarian; greater than 100 µM with KM12 colon; 63.9 µM with CCRF-CEM leukemia. For the same compound, the TGI was 69.9 µM in the test with UO-31 renal, 81.2 µM in the test on NCI-H522 lung, 77.5 µM in the test with HT29 colon and greater than 100 µM with PC-3 prostate.
Turning to `COc1ccc(-c2ncn(C[Si](C)(C)C)c2-c2ccc(OC)cc2)cc1`, the TGI with IGROV1 ovarian is 23.1 µM; in the test on SR leukemia it was 66.2 µM; in the test on SW-620 colon, 17 µM; with OVCAR-5 ovarian, 18.3 µM; in the test with OVCAR-4 ovarian, 25.6 µM; in the test on KM12 colon, 19.9 µM. In addition, the TGI in the test on UO-31 renal came to 10 µM; with NCI-H522 lung, 16.2 µM; in the test with HT29 colon it was 10.8 µM; with PC-3 prostate it was 16.9 µM.
With `COC(=O)c1cn(CC(O)CCl)nn1` (stereo unspecified), the TGI with IGROV1 ovarian, with SW-620 colon, in the test with OVCAR-5 ovarian, in the test on OVCAR-4 ovarian, in the test with KM12 colon and in the test with CCRF-CEM leukemia was greater than 100 µM throughout. For the same compound, the TGI in the test on UO-31 renal, in the test on NCI-H522 lung, in the test with HT29 colon and with PC-3 prostate was greater than 100 µM in each case.
For the compound `O=C(O)/C(=C\c1ccc(O)cc1)c1cccc2ccccc12`, the TGI with IGROV1 ovarian, in the test with SR leukemia, with SW-620 colon, in the test with OVCAR-5 ovarian, in the test with OVCAR-4 ovarian and in the test on KM12 colon was greater than 100 µM throughout. Also, the TGI in the test on UO-31 renal, with NCI-H522 lung, with HT29 colon and in the test on PC-3 prostate was greater than 100 µM each time.
For `O=C(C/C(=N/O)C(F)(F)F)c1cccs1`, the TGI in the test with IGROV1 ovarian, in the test on SR leukemia, with SW-620 colon, in the test on OVCAR-5 ovarian, with OVCAR-4 ovarian and with KM12 colon was greater than 100 µM throughout. Besides, the TGI in the test on CCRF-CEM leukemia, in the test on UO-31 renal, in the test on HT29 colon and in the test with PC-3 prostate was greater than 100 µM throughout.
In the case of `COC(=O)C(Cc1ccc(N(C)C)cc1)(NC(=O)c1ccccc1)P(=O)(OC)OC` (stereo unspecified), the TGI in the test with IGROV1 ovarian, in the test with SR leukemia, in the test on SW-620 colon, in the test with OVCAR-5 ovarian, in the test on OVCAR-4 ovarian and in the test on KM12 colon was greater than 100 µM throughout. Further, the TGI in the test with CCRF-CEM leukemia, with UO-31 renal, in the test on NCI-H522 lung and with HT29 colon was greater than 100 µM each time.
Turning to `Cc1ccc(N=Nc2c(O)ccc3cc(S(=O)(=O)O)ccc23)cc1`, the TGI with IGROV1 ovarian, in the test on SW-620 colon, in the test with OVCAR-5 ovarian, in the test with OVCAR-4 ovarian, with KM12 colon and with CCRF-CEM leukemia was greater than 100 µM in each case. The TGI in the test on UO-31 renal, in the test on NCI-H522 lung, in the test on HT29 colon and with PC-3 prostate was greater than 100 µM each time.
Take `COC(=O)C1=C(C(=O)OC)C(N(C)C)C(C(=O)OC)=C(C(=O)OC)S1`: the TGI in the test with SR leukemia, with SW-620 colon, with OVCAR-5 ovarian, in the test on OVCAR-4 ovarian, with KM12 colon and in the test with UO-31 renal was greater than 100 µM in each case. In addition, the TGI in the test with PC-3 prostate is greater than 100 µM.
As to `COc1c(Br)cc2ccccc2c1-c1c(OC)c(Br)cc2ccccc12`, the TGI in the test with IGROV1 ovarian, in the test on SW-620 colon, in the test with OVCAR-5 ovarian, in the test with OVCAR-4 ovarian, in the test on KM12 colon and in the test on CCRF-CEM leukemia was greater than 100 µM in each case. The TGI with UO-31 renal, in the test on NCI-H522 lung, in the test with HT29 colon and with PC-3 prostate was greater than 100 µM each time.
Take `O=C1CSC(c2ccc([N+](=O)[O-])cc2)N1c1ccc(-c2ccc(-n3c(-c4ccccc4)nc4ccccc4c3=O)cc2)cc1` (stereo unspecified): the TGI in the test with SR leukemia is 87 µM; in the test with SW-620 colon, greater than 100 µM; with OVCAR-5 ovarian, greater than 100 µM; in the test on OVCAR-4 ovarian, greater than 100 µM; in the test with KM12 colon, greater than 100 µM; with CCRF-CEM leukemia it was greater than 100 µM. The TGI with UO-31 renal, in the test with NCI-H522 lung, in the test with HT29 colon and with PC-3 prostate was greater than 100 µM throughout.
Regarding `Cc1ccc(-c2cc[n+]3c(n2)oc2ccccc23)cc1`, the TGI with IGROV1 ovarian was greater than 100 µM; in the test with SR leukemia, 47 µM; in the test with SW-620 colon, greater than 100 µM; in the test on OVCAR-5 ovarian it was greater than 100 µM; with OVCAR-4 ovarian it was 48.8 µM; with KM12 colon, greater than 100 µM. The TGI in the test with CCRF-CEM leukemia was 36.3 µM; in the test on UO-31 renal, greater than 100 µM; in the test with NCI-H522 lung it was 20 µM.
In the case of `COC(=O)CNC(=O)CCC(C)[C@H]1CCC2C3C(C[C@H](OC(C)=O)[C@@]21C)[C@@]1(C)CCC2(C[C@H]1C[C@H]3OC(C)=O)OOC1(CC[C@]3(C)C4C[C@H](OC(C)=O)[C@@]5(C)C(CC[C@@H]5C(C)CCC(=O)NCC(=O)OC)C4[C@H](OC(C)=O)C[C@@H]3C1)OO2` (stereo partly specified), the TGI in the test with IGROV1 ovarian was 1.91 µM; with SW-620 colon, greater than 50 µM; with OVCAR-5 ovarian it was 9.96 µM; in the test on OVCAR-4 ovarian, 13.3 µM; in the test on KM12 colon, 41.2 µM; in the test on CCRF-CEM leukemia it was 1.57 µM. Besides, the TGI in the test with UO-31 renal was 1.51 µM; with NCI-H522 lung it was 3.19 µM; with HT29 colon, 2.37 µM; in the test with PC-3 prostate, 8.69 µM.
Take `O=C(CN1CCCCC1)Nc1ccc2c(c1)C1Oc3ccccc3CC1CO2` (stereo unspecified): the TGI with IGROV1 ovarian was 58 µM; in the test on SR leukemia it was greater than 100 µM; in the test on SW-620 colon it was 39.7 µM; in the test with OVCAR-5 ovarian it was 38.2 µM; with KM12 colon it was 49.9 µM; with CCRF-CEM leukemia it was greater than 100 µM. Also, the TGI with UO-31 renal is 72.7 µM; with NCI-H522 lung it was 36.3 µM; in the test with HT29 colon it was 29.1 µM; with PC-3 prostate, 35 µM.
